# Reference: patent US9359308B2, “Pyrazine kinase inhibitors” (Portola Pharmaceuticals, Inc., priority 2011, dated 2016)
# pIC50: −log10 of the molar value.
# Target: T1, full length active recombinant SYK enzyme (Homo sapiens, UniProt P43405)
# T1 construct: full length active recombinant SYK enzyme (Millipore, Calif.); purchased Millipore
# Assay: Inhibition of Syk tyrosine phosphorylation activity (LANCE TR-FRET kinase assay)
# Assay type: biochemical
# Conditions: activity in the Syk assays, class symbols
# Method in brief: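 IC50 was derived by non-linear regression of TR-FRET signal (Eu-W1024-PY100 donor, streptavidin-APC acceptor) read 1 h after EDTA quench. The kinase step ran 1 h at room temperature with 1 nM full-length SYK, 550 nM biotinylated DEEDYESP substrate and 100 μM ATP in Tris pH 7.5/MgCl2/DTT at 3% final DMSO.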
row,pIC50,Compound
1,8.00 to 9.00,"CC(C)[C@@H](Nc1cnc(C(N)=O)c(Nc2ccc3cnccc3c2)n1)C(N)=O [Example 189, (R)-5-(1-amino-3-methyl-1-oxobutan-2-ylamino)-3-(isoquinolin-6-ylamino)pyrazine-2-carboxamide]"
2,8.00 to 9.00,"COc1cncc(Nc2nc(N[C@@H]3CCCC[C@@H]3N)cnc2C(N)=O)c1 [Example 309, 5-((1R,2S)-2-aminocyclohexylamino)-3-(5-methoxypyridin-3-ylamino)pyrazine-2-carboxamide]"
3,8.00 to 9.00,"NC(=O)c1ncc(N[C@@H]2CCCC(F)(F)[C@@H]2N)nc1Nc1ccc2c(c1)COCC2 [Example 451, 5-(((1R,2R)-2-amino-3,3-difluorocyclohexyl)amino)-3-(isochroman-7-ylamino)pyrazine-2-carboxamide]"
4,8.00 to 9.00,"CC(C)c1cc(Nc2nc(N[C@H](C)C(N)=O)cnc2C(N)=O)sn1 [Example 241, (R)-5-(1-amino-1-oxopropan-2-ylamino)-3-(3-isopropylisothiazol-5-ylamino)pyrazine-2-carboxamide]"
5,8.00 to 9.00,CC[C@@H](Nc1cnc(C(N)=O)c(Nc2ccc(-c3ncco3)cc2)n1)C(N)=O [Example 446]
6,7.00 to 8.00,"CC[C@@H](Nc1cnc(C(N)=O)c(Nc2ccc(S(C)(=O)=O)cc2)n1)C(N)=O [Example 159, (R)-5-(1-amino-1-oxobutan-2-ylamino)-3-(4-(methylsulfonyl)phenylamino)pyrazine-2-carboxamide]"
7,8.00 to 9.00,"COc1ncc(Nc2nc(N[C@@H]3CCCC[C@@H]3N)cnc2C(N)=O)cc1C [Example 306, 5-((1R,2S)-2-aminocyclohexylamino)-3-(6-methoxy-5-methylpyridin-3-ylamino)pyrazine-2-carboxamide]"
8,8.00 to 9.00,"CC(C)C[C@@H](Nc1cnc(C(N)=O)c(Nc2cnc3ccccc3c2)n1)C(N)=O [Example 1, (R)-5-(1-amino-4-methyl-1-oxopentan-2-ylamino)-3-(quinolin-3-ylamino)pyrazine-2-carboxamide]"
9,8.00 to 9.00,"NC(=O)c1ncc(N[C@@H](C(N)=O)C2CC2)nc1Nc1ccc2ncccc2c1 [Example 76, (R)-5-(2-amino-1-cyclopropyl-2-oxoethylamino)-3-(quinolin-6-ylamino)pyrazine-2-carboxamide]"
10,6.00 to 7.00,"CC[C@@H](Nc1cnc(C(N)=O)c(Nc2cccc3ccncc23)n1)C(N)=O [Example 377, (R)-5-(1-amino-1-oxobutan-2-ylamino)-3-(isoquinolin-8-ylamino)pyrazine-2-carboxamide]"
11,6.00 to 7.00,"CC(C)[C@@H](Nc1cnc(C(N)=O)c(Nc2ccc3c(c2)OCO3)n1)C(N)=O [Example 146, (R)-5-(1-amino-3-methyl-1-oxobutan-2-ylamino)-3-(benzo[d][1,3]dioxol-5-ylamino)pyrazine-2-carboxamide]"
12,8.00 to 9.00,"CC(C)(C)C[C@@H](Nc1cnc(C(N)=O)c(Nc2snc3sccc23)n1)C(N)=O [Example 261, (R)-5-(1-amino-4,4-dimethyl-1-oxopentan-2-ylamino)-3-(thieno[2,3-c]isothiazol-3-ylamino)pyrazine-2-carboxamide]"
13,6.00 to 7.00,"CC(C)C[C@@H](Nc1cnc(C(N)=O)c(Nc2ccc(C(=O)O)nc2)n1)C(N)=O [Example 294, (R)-5-(6-(1-amino-4-methyl-1-oxopentan-2-ylamino)-3-carbamoylpyrazin-2-ylamino)picolinic acid]"
14,8.00 to 9.00,"NC(=O)c1ncc(N[C@@H]2CCCC[C@@H]2N)nc1Nc1ccc(C(=O)N2CC(F)(F)C2)nc1 [Example 297, 5-((1R,2S)-2-aminocyclohexylamino)-3-(6-(3,3-difluoroazetidine-1-carbonyl)pyridin-3-ylamino)pyrazine-2-carboxamide]"
15,8.00 to 9.00,"COc1cc(Nc2nc(N[C@@H]3CCCC[C@@H]3N)cnc2C(N)=O)ccn1 [Example 291, 5-((1R,2S)-2-aminocyclohexylamino)-3-(2-methoxypyridin-4-ylamino)pyrazine-2-carboxamide]"
16,8.00 to 9.00,"COc1cncc(Nc2nc(N[C@H](CC(C)(C)C)C(N)=O)cnc2C(N)=O)c1 [Example 253, (R)-5-(1-amino-4,4-dimethyl-1-oxopentan-2-ylamino)-3-(5-methoxypyridin-3-ylamino)pyrazine-2-carboxamide]"
17,7.00 to 8.00,"Cc1cc(Nc2nc(N[C@H](CC3CC3)C(N)=O)cnc2C(N)=O)c[n+]([O-])c1 [Example 100, (R)-3-(6-(1-amino-3-cyclopropyl-1-oxopropan-2-ylamino)-3-carbamoylpyrazin-2-ylamino)-5-methylpyridine 1-oxide]"
18,8.00 to 9.00,"COc1cc(Nc2nc(N[C@H](CC3CC3)C(N)=O)cnc2C(N)=O)cc(OC)c1 [Example 164, (R)-5-(1-amino-3-cyclopropyl-1-oxopropan-2-ylamino)-3-(3,5-dimethoxyphenylamino)pyrazine-2-carboxamide]"
19,8.00 to 9.00,"CC[C@@H](Nc1cnc(C(N)=O)c(Nc2ccc3c(ccn3C)c2)n1)C(N)=O [Example 393, (R)-5-(1-amino-1-oxobutan-2-ylamino)-3-(1-methyl-1H-indol-5-ylamino)pyrazine-2-carboxamide]"

row,pIC50,Compound
1,7.00 to 8.00,"NC(=O)c1ncc(N[C@H]2CC[C@@H](N)CC2)nc1Nc1cnc2ccccc2c1 [Example 185, 5-((1s,4s)-4-aminocyclohexylamino)-3-(quinolin-3-ylamino)pyrazine-2-carboxamide]"
2,7.00 to 8.00,"CC(C)(C)c1cc(Nc2nc(N[C@H](CC3CC3)C(N)=O)cnc2C(N)=O)sn1 [Example 229, (R)-5-(1-amino-3-cyclopropyl-1-oxopropan-2-ylamino)-3-(3-tert-butylisothiazol-5-ylamino)pyrazine-2-carboxamide]"
3,7.00 to 8.00,"CC[C@@H](Nc1cnc(C(N)=O)c(Nc2ccnc(C)c2)n1)C(N)=O [Example 178, (R)-5-(1-amino-1-oxobutan-2-ylamino)-3-(2-methylpyridin-4-ylamino)pyrazine-2-carboxamide]"
4,> 9.00,"NC(=O)c1ncc(N[C@@H]2CCCC[C@@H]2N)nc1Nc1cnn(-c2ccccc2)c1 [Example 262, 5-((1R,2S)-2-aminocyclohexylamino)-3-(1-phenyl-1H-pyrazol-4-ylamino)pyrazine-2-carboxamide]"
5,8.00 to 9.00,"CC[C@@H](Nc1cnc(C(N)=O)c(Nc2cnc3ccccc3c2)n1)C(N)=O [Example 73, (R)-5-(1-amino-1-oxobutan-2-ylamino)-3-(quinolin-3-ylamino)pyrazine-2-carboxamide]"
6,> 9.00,"NC(=O)c1ncc(N[C@@H]2CCCC[C@@H]2N)nc1Nc1cnn2ccccc12 [Example 413, 5-(((1R,2S)-2-aminocyclohexyl)amino)-3-(pyrazolo[1,5-a]pyridin-3-ylamino)pyrazine-2-carboxamide]"
7,7.00 to 8.00,"CC[C@@H](Nc1cnc(C(N)=O)c(Nc2ccnc(C(F)(F)F)c2)n1)C(N)=O [Example 349, (R)-5-(1-amino-1-oxobutan-2-ylamino)-3-(2-(trifluoromethyl)pyridin-4-ylamino)pyrazine-2-carboxamide]"
8,8.00 to 9.00,"CC[C@@H](Nc1cnc(C(N)=O)c(Nc2cnn3ccccc23)n1)C(N)=O [Example 421, (R)-5-((1-amino-1-oxobutan-2-yl)amino)-3-(pyrazolo[1,5-a]pyridin-3-ylamino)pyrazine-2-carboxamide]"
9,7.00 to 8.00,"NC(=O)c1ncc(N[C@@H]2CCCC(F)(F)[C@@H]2N)nc1Nc1cncc2ccccc12 [Example 363, 5-((1R,2R)-2-amino-3,3-difluorocyclohexylamino)-3-(isoquinolin-4-ylamino)pyrazine-2-carboxamide]"
10,7.00 to 8.00,"NC(=O)c1ncc(N[C@@H]2CCCC[C@@H]2N)nc1Nc1cnsc1 [Example 430, 5-(((1R,2S)-2-aminocyclohexyl)amino)-3-(isothiazol-4-ylamino)pyrazine-2-carboxamide]"
11,8.00 to 9.00,"CC(C)C[C@@H](Nc1cnc(C(N)=O)c(Nc2cccc(-c3ccncc3)c2)n1)C(N)=O [Example 87, (R)-5-(1-amino-4-methyl-1-oxopentan-2-ylamino)-3-(3-(pyridin-4-yl)phenylamino)pyrazine-2-carboxamide]"
12,8.00 to 9.00,"NC(=O)c1ncc(N[C@@H]2CCCC[C@@H]2N)nc1Nc1ccn2ccnc2c1 [Example 427, 5-(((1R,2S)-2-aminocyclohexyl)amino)-3-(imidazo[1,2-a]pyridin-7-ylamino)pyrazine-2-carboxamide]"
13,> 9.00,"NC(=O)c1ncc(N[C@@H]2CCCC[C@@H]2N)nc1Nc1snc2ccccc12 [Example 270, 5-((1R,2S)-2-aminocyclohexylamino)-3-(benzo[c]isothiazol-3-ylamino)pyrazine-2-carboxamide]"
14,6.00 to 7.00,"NC(=O)c1ncc(N[C@@H]2CCCC(F)(F)[C@@H]2N)nc1Nc1cccc(-c2ncccn2)c1 [Example 16, 5-((1R,2R)-2-amino-3,3-difluorocyclohexylamino)-3-(3-(pyrimidin-2-yl)phenylamino)pyrazine-2-carboxamide]"
15,6.00 to 7.00,"CC[C@@H](Nc1cnc(C(N)=O)c(Nc2cnn(CC3CC3)c2)n1)C(N)=O [Example 218, (R)-5-(1-amino-1-oxobutan-2-ylamino)-3-(1-(cyclopropylmethyl)-1H-pyrazol-4-ylamino)pyrazine-2-carboxamide]"
16,8.00 to 9.00,"NC(=O)c1ncc(N[C@@H]2CCOC[C@@H]2N)nc1Nc1cnc2ccccc2c1 [Example 79, 5-((3R,4R)-3-aminotetrahydro-2H-pyran-4-ylamino)-3-(quinolin-3-ylamino)pyrazine-2-carboxamide]"
17,7.00 to 8.00,"CC[C@@H](Nc1cnc(C(N)=O)c(Nc2ccc(C)cc2)n1)C(N)=O [Example 152, (R)-5-(1-amino-1-oxobutan-2-ylamino)-3-(p-tolylamino)pyrazine-2-carboxamide]"
18,7.00 to 8.00,"CS(=O)(=O)c1ccc(Nc2nc(N[C@@H]3CCCC(F)(F)[C@@H]3N)cnc2C(N)=O)cc1 [Example 167, 5-((1R,2R)-2-amino-3,3-difluorocyclohexylamino)-3-(4-(methylsulfonyl)phenylamino)pyrazine-2-carboxamide]"
